A word on the Cmax: it is the highest concentration seen after dosing. The Tmax is the time at which the peak concentration occurs. What is called half-life is how long it takes for the measured level to halve. Read a low half-life as rapid decline. One may read the MRT as a mean duration of stay, worked out from the concentration-time curve.

Here are results for 2 compounds from US20170304329A1 (THE UNIVERSITY OF KANSAS, priority 2014, published 2017).

The test system of data set [1] is β-glucuronidase. As for the experimental part:
Based on human excretion data [Kellner et al, Arzneimittel-Forschung. 31 (8A):1337-1353], as well as evidence that bladder cancer patients have increased glucuronidase activity in urine [Paigen, K., Peterson, J., Paigen B. (1984) Role of urinary β-glucuronidase activity in human bladder cancer. Cancer Res 44:3620-3623], we conducted in vitro metabolism studies to characterize the stability of ciclopirox glucuronide in urine (at a concentration of 150 μM) obtained from bladder cancer patients compared to control urine collected from healthy volunteers.

The test system of data set [2] is 253JBV cells. Put plainly: Cell proliferation, hexosaminidase assay. Format: cell-based, human. The note with it: up to 72 h. As for the experimental part:
(§1) To determine the effect of CPX on bladder cancer cell proliferation in T24 (MIBC) and 253-JBV (NMIBC) cells, 5,000 cells per well were seeded on to 96-well plates and grown overnight. The cells were then treated with increasing doses of CPX in RPMI media containing 10% FBS. Analysis of cell proliferation after the treatment period was estimated by the hexosaminidase assay. Briefly, the medium was removed and hexosaminidase substrate solution in citrate buffer pH 5 (7.5 mM), p-nitrophenol-N-acetyl-beta-D-glucosaminidase (Sigma Aldrich) was added at 75 μL per well. The plate was incubated at 37° C. in 100% humidity for 30 minutes. The reaction was stopped with 112.5 μL of 50 mM glycine containing 5 mM of EDTA (pH 10.4). The absorbance was measured at 405 nm. Experiments were conducted at n=6, and then repeated at least three times. The data were analyzed as percent of control, where the control wells were treated with equivalent amounts of DMSO alone. For IC50 calculations, a plot between the drug concentration and hexosaminidase activity was generated and the data was fitted either linearly or exponentially. The best fit was used for further processing of data.
(§2) We determined and compared the effect of CPX with CPX-POM and CPX-glucuronide in vitro by performing proliferation assay. To determine the effect of CPX, CPX-POM and CPX-glucuronide on bladder cancer cell proliferation in T24 (MIBC) and 253-JBV (NMIBC) cells, 5,000 cells per well were seeded on to 96-well plates and grown overnight. The cells were then treated with increasing doses of CPX, CPX-POM and CPX-glucuronide in RPMI media containing 10% FBS. Analysis of cell proliferation after the treatment period was estimated by the hexosaminidase assay. Briefly, the medium was removed and hexosaminidase substrate solution in citrate buffer pH 5 (7.5 mM), p-nitrophenol-N-acetyl-beta-D-glucosaminidase (Sigma Aldrich) was added at 75 μL per well. The plate was incubated at 37° C. in 100% humidity for 30 minutes. The reaction was stopped with 112.5 μL of 50 mM glycine containing 5 mM of EDTA (pH 10.4). The absorbance was measured at 405 nm.
(§3) Experiments were conducted at n=6, and then repeated at least three times. The data were analyzed as percent of control, where the control wells were treated with equivalent amounts of DMSO alone. For IC50 so calculations, a plot between the drug concentration and hexosaminidase activity was generated and the data was fitted either linearly or exponentially.

Data set [3] deals with T24 cells. The data set is described as follows: Cell proliferation, hexosaminidase assay. It is filed as cell-based, human. The note with it: up to 72 h. As for the experimental part:
as §1, §2, §3

For data set [4] the following is noted: urine, dogs, single 9 mg/kg oral.
The conditions of data set [5]: cited from earlier work.
Data set [6] is described as follows: Study 11428: plasma CPX pharmacokinetics after IV CPX-POM, SQ CPX-POM and oral CPX-O. It is filed as in vivo, male Sprague-Dawley rats. The note with it: plasma CPX, rats, single 30 mg/kg oral; for AUC: plasma, po.
Source text: (§4) Intravenous CPX-POM was used as the reference in characterizing the bioavailability of ciclopirox following SQ ciclopirox-POM prodrug in this specie.
A short description of data set [7]: Study 208-02: plasma CPX pharmacokinetics after IV and oral CPX-O and CPX-POM. Format: in vivo, male C57/Bl6 mice. The note with it: plasma CPX, mice, single 10 mg/kg IV. From the text: Study 208-02. Bioavailability of Ciclopirox Following Oral and Intravenous Administration of Ciclopirox-POM Prodrug in the Mouse. […] The objectives of this study were to characterize the rate and extent of CPX-POM metabolism and assess the feasibility of orally administered ciclopirox-POM prodrug in support of future cancer proof of principle studies.

Data set [8] can be described thus: Study 11429: plasma CPX pharmacokinetics after IV CPX-POM, SQ CPX-POM and oral CPX-O. It is filed as in vivo, male beagle dogs. The note with it: plasma CPX, dogs, single 9 mg/kg oral; for AUC: plasma, po, 9 mg/kg.
Source text: as §4
The conditions of data set [9]: urine, rats, single 30 mg/kg oral.
For data set [10] the following is noted: humans; oral; cited from earlier work.
Where [11] appears, read: 150 μM CPX-G, six-hour incubation, pooled urine from six NMIBC patients.

Structures are written as SMILES. Values joined by “and” are separate entries in the source; they are usually repeats but may differ in a detail not shown here. Equal values may be shown once. Read-outs that look alike come from different tables or passages of the source.

With `Cc1cc(C2CCCCC2)n(O[C@H]2OC(C(=O)O)[C@H](O)C(O)C2O)c(=O)c1` (stereo partly drawn) [CPX-G, ciclopirox glucuronide], in data set [1] (setting [11]), the “ciclopirox formed by hydrolysis” value was determined as 7.9 µM and the formation rate is on record as 5%. Besides, in data set [1] (bladder cancer patient urine compared to healthy volunteers), the “extent of ciclopirox formation, patient urine vs healthy volunteer urine” value was “approximately 11.6 fold”. The “rate of β-glucuronidase-mediated hydrolysis, patient urine vs control urine” value in [1] (pooled bladder cancer patient urine vs control urine) was 5.6-11.5 fold. The “effect on cell proliferation” value in data set [2] is “did not show any significant effect”. In data set [3], the “effect on cell proliferation” value is given as “did not show any significant effect”.
Turning to `Cc1cc(C2CCCCC2)n(O)c(=O)c1` [CPX-O, ciclopirox olamine], in data set [4], the FeCPX turned out to be 0.32 ± 0.21%, the “Xe/dtCPX 8-24 hr” value came to 2.90 ± 1.70 µg/h and the “XeCPX 0-24 hr” value stood at 299 ± 208 µg. Besides, the “UCPX 0-24 hr” value in data set [4] (9 mg/kg) was 1,602 ± 750^ ng/mL and 7.74 ± 3.62 μM. Also, the tolerability entry in data set [5] (80 mg/m^2 oral, once daily) is “well tolerated”. For the same compound, the toxicity entry in data set [5] (oral, four times daily) is recorded as “dose-limiting gastrointestinal toxicity”. The AUC in data set [6] (male, Sprague-Dawley, rat, 30 mg/kg, read-out: AUC0∫^n) is 211 ± 84.5 ng·h/mL. Further, the AUC in data set [6] (male, Sprague-Dawley, rat, 30 mg/kg, read-out: AUC0∫^∞) was 378 ± 140 ng·h/mL. Besides, in data set [6] (male, Sprague-Dawley, rat), the peak level (Cmax) was 373 ± 158 ng/mL, the time to peak (Tmax) amounted to 15 ± 7.74 min and the half-life was 48.1 ± 33.5 min. Also, the Kel in data set [6] was 1.234 ± 0.742 h⁻¹. In [6] (reference IV CPX-POM, 30 mg/kg), the F was 4.6% and 4.56%. In data set [7] (male, C57/Bl6, mouse), the C0 worked out at 11300 ng/mL, the MRT was 15.5 min and the clearance is 108 mL/min/kg. The Vd in [7] (male, C57/Bl6, mouse, read-out: Vss) was determined as 1.68 L/kg. Also, in data set [7], the “AUMC0∫^n” value stood at 358 ng*hr^2/mL, the “AUMC0∫^∞” value is given as 401 ng*hr^2/mL and the Vdz worked out at 5.7 L/kg. Further, in data set [8] (male, beagle, dog, read-out: AUC0∫^n), the AUC was determined as 1900 ng·h/mL. Also, the AUC in data set [8] (male, beagle, dog, read-out: AUC0∫^∞) was 2700 ng·h/mL. In [8] (male, beagle, dog), the Cmax was 1020 ng/mL, the Tmax came out at 15 ± 7.74 min and the half-life was 331 ± 23.4 min. For the same compound, the Kel in data set [8] is 0.126 ± 0.009 h⁻¹. In data set [9], the FeCPX stood at 0.25 ± 0.18%, the “Xe/dtCPX 0-8 hr” value came out at 0.63 ± 0.16 µg/h, the “Xe/dtCPX 8-24 hr” value stood at 1.08 ± 1.11 µg/h and the “XeCPX 0-24 hr” value was found to be 22.30 ± 16.65 µg. The “UCPX 0-24 hr” value in data set [9] (30 mg/kg) was 1,711 ± 1,427 ng/mL and 8.28 ± 6.89 μM. In [10], the “dose excreted in urine within 6 hours” value is listed as 87%; the “dose excreted in urine within 12 hours” value is “approximately 95%”; the “dose in urine identified as ciclopirox” value is on record as 4%; the “dose in urine identified as ciclopirox and ciclopirox glucuronide” value is given as 83%. Moreover, the “dose in urine identified as ciclopirox glucuronide” value in [10] is 79%.
